Test results taken from the supplement of paper PMC10307832.

How the values were obtained:
Experiment in all cases: relative viability (nuclei count vs DMSO), 5 days (fraction); higher = more cells survive
[1] = compound: COc1cc2nccc(Oc3ccc(NC(=O)C4(C(=O)Nc5ccc(F)cc5)CC4)cc3)c2cc1OC [Cabozantinib] + CC1(C)CCC(c2ccc(Cl)cc2)=C(CN2CCN(c3ccc(C(=O)NS(=O)(=O)c4ccc(N[C@H](CCN5CCOCC5)CSc5ccccc5)c(S(=O)(=O)C(F)(F)F)c4)cc3)CC2)C1 [Navitoclax] (partner 0.5 µM)
Method in brief: (§1)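 Relative viability divides the nuclei count in treated wells by that in vehicle wells. Lung cancer cell lines were seeded in 1536-well plates, dosed by pin tool the next day, and fixed and stained after 5 days in one step with final 0.05% Triton X-100, 1% formaldehyde and 1 ug/ml Hoechst. Dosing was a single drug or a fixed anchor-drug dose plus five library-drug doses (not always all listed) in √10 steps, and values are medians of duplicate plates imaged at 4×.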

Zosuquidar + Lapatinib = compound: O[C@@H](COc1cccc2ncccc12)CN1CCN([C@@H]2c3ccccc3[C@@H]3[C@H](c4ccccc42)C3(F)F)CC1 [Zosuquidar] + CS(=O)(=O)CCNCc1ccc(-c2ccc3ncnc(Nc4ccc(OCc5cccc(F)c5)c(Cl)c4)c3c2)o1 [Lapatinib] (partner 2 µM)
Method in brief: as §1

Zosuquidar + Palbociclib = compound: O[C@@H](COc1cccc2ncccc12)CN1CCN([C@@H]2c3ccccc3[C@@H]3[C@H](c4ccccc42)C3(F)F)CC1 [Zosuquidar] + CC(=O)c1c(C)c2cnc(Nc3ccc(N4CCNCC4)cn3)nc2n(C2CCCC2)c1=O [Palbociclib] (partner 0.5 µM)
Method in brief: as §1

Zosuquidar + Luminespib = compound: O[C@@H](COc1cccc2ncccc12)CN1CCN([C@@H]2c3ccccc3[C@@H]3[C@H](c4ccccc42)C3(F)F)CC1 [Zosuquidar] + CCNC(=O)c1noc(-c2cc(C(C)C)c(O)cc2O)c1-c1ccc(CN2CCOCC2)cc1 [Luminespib] (partner 0.01 µM)
Method in brief: as §1

| Cell Line | relative viability ([1]; first compound 0.02 µM) | relative viability ([1]; first compound 0.06325 µM) | relative viability ([1]; first compound 0.2 µM) | relative viability ([1]; first compound 0.6325 µM) | relative viability ([1]; first compound 2 µM) | relative viability (Zosuquidar + Lapatinib; first compound 0.01 µM) | relative viability (Zosuquidar + Lapatinib; first compound 0.03162 µM) | relative viability (Zosuquidar + Lapatinib; first compound 0.1 µM) | relative viability (Zosuquidar + Lapatinib; first compound 0.3162 µM) | relative viability (Zosuquidar + Lapatinib; first compound 1 µM) | relative viability (Zosuquidar + Palbociclib; first compound 0.01 µM) | relative viability (Zosuquidar + Palbociclib; first compound 0.03162 µM) | relative viability (Zosuquidar + Palbociclib; first compound 0.1 µM) | relative viability (Zosuquidar + Palbociclib; first compound 0.3162 µM) | relative viability (Zosuquidar + Palbociclib; first compound 1 µM) | relative viability (Zosuquidar + Luminespib; first compound 0.01 µM) | relative viability (Zosuquidar + Luminespib; first compound 0.03162 µM) | relative viability (Zosuquidar + Luminespib; first compound 0.1 µM) | relative viability (Zosuquidar + Luminespib; first compound 0.3162 µM) | relative viability (Zosuquidar + Luminespib; first compound 1 µM) |
| --- | --- | --- | --- | --- | --- | --- | --- | --- | --- | --- | --- | --- | --- | --- | --- | --- | --- | --- | --- | --- |
| 201T | 1.2 | 1.25 | 1.19 | 1.2 | 1.24 | 0.996 | 1.05 | 0.881 | 1.02 | 0.997 | 0.349 | 0.343 | 0.365 | 0.354 | 0.337 | 1.02 | 1 | 0.961 | 1.12 | 1.04 |
| A549 | 1.26 | 1.24 | 1.21 | 1.27 | 1.08 | 0.958 | 0.935 | 0.984 | 0.977 | 0.94 |  |  |  |  |  |  |  |  |  |  |
| A-427 | 0.988 | 1.03 | 0.998 | 0.978 | 0.978 | 1.07 | 1.02 | 0.842 | 1.07 | 1.01 | 0.542 | 0.522 | 0.552 | 0.566 | 0.51 | 1.15 | 0.963 | 0.749 | 1.13 | 0.756 |
| ABC-1 |  |  |  |  |  | 1.17 | 1.14 | 1.24 | 1.19 | 1.05 | 0.616 | 0.685 | 0.68 | 0.84 | 0.599 | 0.682 | 0.742 | 0.748 | 0.603 | 0.474 |
| BEN | 0.05 | 0.0759 | 0.0381 | 0.213 | 0.0541 | 0.79 | 0.718 | 0.594 | 0.825 | 0.745 | 0.467 | 0.491 | 0.456 | 0.455 | 0.489 | 0.374 | 0.218 | 0.381 | 0.274 | 0.329 |
| CAL-12T | 1.51 | 1.2 | 1.37 | 1.17 | 1.46 | 0.716 | 0.84 |  | 0.768 | 0.819 | 0.381 | 0.62 | 0.412 | 0.593 | 0.462 | 0.443 | 0.575 | 0.513 | 0.221 | 0.504 |
| COR-L23 | 1.07 | 1.16 | 1.03 | 0.973 | 0.931 | 0.953 | 0.934 | 0.968 | 1.15 | 1.34 | 0.295 | 0.328 | 0.301 | 0.354 | 0.314 | 0.619 | 0.631 | 0.747 | 0.777 | 0.776 |
| COR-L 105 | 0.789 | 0.771 |  | 0.657 | 0.743 | 0.35 | 0.389 | 0.324 | 0.366 | 0.386 | 0.372 | 0.376 | 0.478 | 0.417 | 0.385 | 0.923 | 0.789 | 0.757 | 0.858 | 0.782 |
| Calu-6 | 0.76 | 0.912 | 0.801 | 0.739 | 0.773 | 1.04 | 1.09 | 1.2 | 1.06 | 1.06 |  |  |  |  |  |  |  |  |  |  |
| ChaGo-K-1 | 0.823 | 1.28 | 0.972 | 0.562 | 1.04 |  |  |  |  |  | 0.885 | 0.994 | 1.02 | 0.917 | 0.947 | 0.714 | 0.625 | 0.652 | 0.578 | 0.512 |
| EBC-1 | 0.444 | 0.302 | 0.152 | 0.125 | 0.0913 | 0.215 | 0.234 | 0.206 | 0.198 | 0.226 |  |  |  |  |  |  |  |  |  |  |
| EKVX | 0.899 | 1.1 | 0.879 | 1.03 | 1.07 | 0.227 | 0.254 | 0.106 | 0.34 | 0.214 | 0.377 | 0.39 |  | 0.411 | 0.375 | 0.926 | 0.8 | 0.749 | 0.812 | 0.832 |
| EMC-BAC-2 | 1.16 | 1.36 | 1.2 | 1.14 | 1.22 | 0.852 | 0.925 | 0.816 | 0.986 | 0.954 | 0.508 | 0.451 | 0.544 | 0.577 | 0.521 | 1.19 | 1.19 | 1.05 | 1.29 | 1.11 |
| EPLC-272H | 1.11 | 1.11 | 0.927 | 1.02 | 1.12 | 0.916 | 0.97 | 0.876 | 1.01 | 1 | 0.32 | 0.362 | 0.298 | 0.31 | 0.336 | 0.39 | 0.362 | 0.514 | 0.361 | 0.266 |
| H3255 | 0.491 | 0.676 |  | 0.687 | 0.553 | 0.264 | 0.295 | 0.235 | 0.234 | 0.256 | 0.306 | 0.335 | 0.32 | 0.33 | 0.33 | 1.02 | 0.925 | 0.666 | 1.05 | 0.814 |
| HARA | 1.17 | 1.16 | 1.12 | 1.19 | 1.17 | 0.806 | 0.69 | 0.676 | 0.932 | 0.879 | 0.324 | 0.18 | 0.304 | 0.245 | 0.299 | 0.586 |  | 0.837 | 0.92 | 0.649 |
| HCC-15 | 0.743 | 0.739 | 0.77 | 0.67 | 0.645 | 0.827 | 0.861 | 0.764 | 0.881 | 0.976 | 0.721 | 0.689 | 0.702 | 0.723 | 0.715 | 0.122 | 0.5 | 0.21 | 0.222 | 0.533 |
| HCC-44 | 1.01 | 1.1 | 1.02 | 1.07 | 0.965 | 0.948 | 1.08 | 1.05 | 0.967 | 1.06 | 0.974 | 1.04 | 0.944 | 1.02 | 0.956 | 1.14 | 1.16 | 1.17 | 1.01 | 1.08 |
